This passage reports activity and IC50 results from patent US20250002526A1, “PHARMACEUTICAL COMPOSITION HAVING ANTI-CANCER IMMUNOSTIMULATING EFFECT AND/OR IMMUNE CHECKPOINT INHIBITION POTENTIATING EFFECT” (KYUSHU UNIVERSITY, NATIONAL UNIVERSITY CORPORATION, priority 2021, published 2025).

Molecules are shown by their SMILES. Read-outs that look alike come from different tables or passages of the source.

For experiment [1], the target named is T1, recombinant human SULT2B1b protein (Homo sapiens, UniProt O00204).
T1 sequence (O00204 1-365): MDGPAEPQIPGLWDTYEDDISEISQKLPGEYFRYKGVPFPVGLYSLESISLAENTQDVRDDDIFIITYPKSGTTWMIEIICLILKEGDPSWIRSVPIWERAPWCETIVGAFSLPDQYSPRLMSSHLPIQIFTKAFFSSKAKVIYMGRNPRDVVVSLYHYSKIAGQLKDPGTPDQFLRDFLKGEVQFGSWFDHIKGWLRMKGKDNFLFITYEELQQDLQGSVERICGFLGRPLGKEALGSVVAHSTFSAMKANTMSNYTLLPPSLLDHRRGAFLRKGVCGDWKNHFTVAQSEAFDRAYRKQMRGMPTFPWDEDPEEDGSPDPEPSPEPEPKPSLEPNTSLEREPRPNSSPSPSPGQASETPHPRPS
The experiment is described as follows: SULT assay (in vitro SULT2B1b enzymatic activity measurement). Format: biochemical. To be noted: for activity at 200 µM: test compound 200 μM, relative to DMSO control (100%), read-out: in vitro SULT2B1b assay % activity at 200 μM. As for the experimental part:
For screening for a SULT2B1b inhibitor, enzymatic activity measurement for SULT2B1b was carried out by a method described in a previous report (NPL 2) with slight modifications.
The reaction solution (50 μl) was composed of 1 to 5 μg of recombinant human SULT2B1b protein, 10 μM [^3H]cholesterol (approximately 4,000 dpm/pmol), 10 mM Tris-HCl (pH 7.5, containing 5 mM MgCl2) containing 0.1 mM 3′-phosphoadenosine 5′-phosphosulfate (PAPS), 0.2 mM 2-hydroxypropyl-β-cyclodextrin, and 5% (v/v) ethanol. Recombinant human SULT2B1b protein was pre-incubated with 1 μl of a test compound (final concentration: 40 or 200 μM) or DMSO (control) at room temperature for 15 minutes, 2 mM PAPS (2.5 μl) was then added to initiate reaction, the resultant was reacted at 37° C. for 15 minutes, and 0.8 ml of ethanol was added to terminate the reaction.
The solution after the reaction was subjected to thin-layer chromatography (TLC) for separation, and then to a liquid scintillation counter to quantify radiolabeled CS.
From the percentage to the amount ([…]) of radiolabeled CS generated through reaction in the absence of the test compound (DMSO) (control), the SULT2B1b activity (% activity) of SULT2B1b protein in the presence of the test compound was evaluated, and the effect of the test compound to inhibit SULT2B1b-mediated CS production (CS production inhibitory effect) was evaluated.
In enzyme assay, SULT assay was performed with use of cholenoic acid as a compound to be tested at different cholesterol and PAPS concentrations (wherein 0.5 to 1 μg of recombinant human SULT2B1b protein was used, the preincubation time and reaction time were each 10 minutes), and the results were fitted to the Michaelis-Menten equation by using Prism 9 (GraphPad Software, Inc.) to perform enzyme kinetic analysis for the inhibition by cholenoic acid.
SULT assay was performed for the compounds as test compounds by the method described in (14) of “II. Experimental procedure” in Experiment Example 1 to evaluate the SULT2B1b inhibitory effects of the compounds.

The subject of experiment [2] is SULT2B1b-mediated CS production in E0771-SULT cells. The experiment is described as follows: CS production inhibitory effect in E0771-SULT cells (LC/MS/MS quantification of CS). Format: cell-based, mouse. As to conditions: Mus musculus; for activity at 10 µM / activity at 20 µM: 24 h; for activity at 10 µM: relative to control (100%); for activity at 20 µM: read-out: CS production % activity at 20 μM, E0771-SULT cells, 24 hours, test compound 20 μM, relative to control without compound (100%); for IC50: read-out: IC50 value (CS production). As for the experimental part: CS in each human cancer tissue sample was quantified by a method described in NPL 2. To monitor the amounts of CS and/or oxysterol generated in E0771, 3LL, EG.7-OVA, and MC38 cells irrespective of the presence or absence of SULT2B1b expression, cells of each type were seeded in a 6-well plate at 5×10^5 cells/well, and the culture supernatant and cell pellet were collected after 24 hours. Subsequently, deuterium-labeled internal standard (IS) compounds (d7-CS [[…]] and d6-25-hydroxycholesterol) were added to fractions of the culture supernatant and cell pellet, each of which was subjected to extraction with 1 mL of extraction solvent (methanol/chloroform/water=5:2:2 [v/v/v]) to extract CS and oxysterol from the culture supernatant or cell pellet.
Each sample was vigorously mixed with a vortex for 1 minute, and then ultrasonicated for 5 minutes. Thereafter, the sample was centrifuged at 16,000×g and 4° C. for 5 minutes, and the supernatant (700 μl) was collected in a clean tube. Into this, 235 μl of chloroform and 155 μl of water were added and mixed, and the resultant was then subjected to vortexing followed by centrifugation to separate into an aqueous layer and an organic layer. Subsequently, 200 μl of the lowermost layer was dried under a nitrogen flow.
The dried sample was dissolved in 50 μl of methanol, and CS and oxysterol therein were quantified by liquid chromatography-tandem mass spectrometry (LC/MS/MS) with a triple quadrupole mass spectrometer (LCMS-8060; Shimadzu Corporation) equipped with an electrospray ionization (ESI) ion source in a multiple reaction monitoring (MRM) mode.
• Column: Inertsil ODS-4 (2.1×150 mm; particle size: 3 μm; GL Sciences Inc.) • Column temperature: 40° C. • Flow rate: 0.3 ml/min • Mobile phase: (A) water/acetonitrile (1:2, v/v) containing 5 mM ammonium acetate (B) Methanol/Isopropanol (1:19, v/v) Containing 5 mM Ammonium Acetate • Gradient curve: 0 min→22 min: (B) 0%→100%, • 22 min→27 min: (B) 100%, • 27 min→27.1 min: (B) 100%→0%, • 27.1 min→30 min: (B) 0% • Injection volume: 5 μl • Mass spectrometry mode: positive and negative ion modes • Electrospray voltage: 4 kV in positive ion mode, −3.5 kV in negative ion mode • Nebulizer gas flow rate: 3.0 L/min • Drying gas flow rate: 10.0 L/min • Desolvation temperature: 250° C. • Heat block temperature: 400° C. • Detector voltage: 2.16 kV • Used were MRM mode and 2 msec of dwell time per channel.
Absolute CS and oxysterol contents were calculated from calibration curves. MRM calibration curves were prepared with chromatographic peak areas for the analytes relative to peak areas for internal standards through three times of analysis for standard solutions.
The CS production effects of test compounds (compounds 1 to 19, 21, 23, 25, and 27 to 32) were evaluated with the mouse breast cancer cell line E0771 expressing SULT2B1b (E0771-SULT cells).
Specifically, as in the above description in experimental procedure (12), E0771-SULT cells were seeded in a 6-well plate at a proportion of 5×10^5 cells/well, and cultured in the presence or absence (control) of each test compound for 24 hours. After culturing, CS generated in E0771-SULT cells was quantified by LC/MS/MS according to the description in experimental procedure (12). The CS production capacity (% activity) of cells cultured in the presence of each test compound was evaluated from the percentage relative to the CS production level (control) (100%) in E0771-SULT cells cultured in the absence of the test compound, and the CS production inhibitory effect of the test compound was evaluated.

Where [3] appears, read: read-out: CS production % activity at 10 μM, E0771-SULT cells, 24 hours, test compound 10 μM (Table 1).
[4] abbreviates: read-out: CS production % activity at 10 μM, E0771-SULT cells, 24 hours, third concentration column of Table 1, head again printed 10 μM.

Broadly, the IC50 is the concentration at which inhibition is half-maximal. As to `C[C@H](CCC(=O)N(Cc1ccccc1)Cc1ccccc1)[C@H]1CC[C@H]2[C@@H]3CC=C4C[C@@H](OC(=O)C(F)(F)F)CC[C@]4(C)[C@H]3CC[C@]12C` [Compound 7, (3S,8S,9S,10R,13R,14S,17R)-17-((R)-5-(dibenzylamino)-5-oxopentan-2-yl)-10,13-dimethyl-2,3,4,7,8,9,10,11,12,13,14,15,16,17-tetradecahydro-1H-cyclopenta[a]phenanthren-3-yl 2,2,2-trifluoroacetate], the activity at 200 µM in experiment [1] came to 6.4%. Moreover, the activity at 10 µM in experiment [2] (setting [3]) was 59%. Moreover, the activity at 10 µM in experiment [2] (setting [4]) was 74.6%. In experiment [2], the activity at 20 µM is 57.8% and the IC50 was 17.3 µM.

Take `CCCCNC(=O)CC[C@@H](C)[C@H]1CC[C@H]2[C@@H]3CC=C4C[C@@H](OC(=O)C(F)(F)F)CC[C@]4(C)[C@H]3CC[C@]12C` [Compound 8, (3S,8S,9S,10R,13R,14S,17R)-17-((R)-5-(butylamino)-5-oxopentan-2-yl)-10,13-dimethyl-2,3,4,7,8,9,10,11,12,13,14,15,16,17-tetradecahydro-1H-cyclopenta[a]phenanthren-3-yl 2,2,2-trifluoroacetate]: the activity at 200 µM in experiment [1] stood at 10.7%. The activity at 10 µM in experiment [2] (setting [3]) turned out to be 70.6%. Moreover, the activity at 10 µM in experiment [2] (setting [4]) stood at 83.6%. Moreover, in experiment [2], the activity at 20 µM worked out at 60.2% and the IC50 is 42.5 µM.

As for `C[C@H](CCC(=O)N1CCOCC1)[C@H]1CC[C@H]2[C@@H]3CC=C4C[C@H](N=[N+]=[N-])CC[C@]4(C)[C@H]3CC[C@]12C` [Compound 12, (R)-4-((3R,8S,9S,10R,13R,14S,17R)-3-azido-10,13-dimethyl-2,3,4,7,8,9,10,11,12,13,14,15,16,17-tetradecahydro-1H-cyclopenta[a]phenanthren-17-yl)-1-morpholinopentan-1-one], the activity at 200 µM in experiment [1] was found to be 8.3%. Further, the activity at 10 µM in experiment [2] (setting [3]) is 98.4%.

On to `CC(=O)OC1CCC2(C)C(=CCC3C2CCC2(C)C(C(C)CCC(=O)O)CCC32)C1` (stereo not drawn) [Compound 17, 3-acetoxy-5-cholenoic acid], for which the IC50 in experiment [1] (recombinant human SULT2B1b, read-out: IC50 value (enzyme assay)) was 186 µM; in experiment [2], 7 µM. In experiment [1], the activity at 200 µM came to 66.4%. For the same compound, the activity at 10 µM in experiment [2] (setting [3]) stood at 43.7%; in experiment [2] (setting [4]) it was 44.9%. In experiment [2], the activity at 20 µM came to 52.4%.
